US8772275B2, “Mediators of hedgehog signaling pathways, compositions and uses related thereto” (Curis, Inc., priority 2001, dated 2014)
pIC50: −log10 of the molar value.

Tested on: Hedgehog pathway
Test: Gli-Luc reporter assay in 10T1/2(s12) cells, OCT-SHH stimulated
Type: cell-based
Conditions: compounds E-V: not from the human-based assay; Gli-Luc assay in 10T1/2(s12) cells
Experimental: (§1) Compounds to be tested are dissolved in DMSO to a concentration of 10 mM, and stored at −20° C. To activate the Hedgehog pathway in the assay cells, an octylated (lipid-modified) form of the N-terminal fragment of the Sonic Hedgehog protein (OCT-SHH) is used. This N-terminal SHH fragment is produced bacterially. See, for example, Taylor F R, et al., Biochemistry 2001, 40, 4359-71.
(§2) Compounds may be tested in the “Gli-Luc” assay below, using the cell line 10T1/2(s12), wherein the cells contain a Hedgehog-responsive reporter construct utilizing Luciferase as the reporter gene. In this way, Hedgehog pathway signaling activity can be measured via the Gli-Luc response.
(§3) 10t1/2(s12) cells are plated in a 96-well micro-titer plate (MTP) at 20,000 cells/well in full medium [DMEM with […]]. Then plates are placed in the incubator for incubation overnight (O/N), at 37° C. and 5% CO2. After 24 h, the medium is replaced with Luciferase-assay medium (DMEM with 0.5% FBS). Compounds are thawed and diluted in assay medium at 3:1000 (about 300-fold) resulting in a starting concentration of about 0.0003 μM to 30 μM.
(§4) Subsequently, 150 μl each sample is added to the first wells (in triplicate). The MTP samples are then diluted at 3-fold dilutions to a total of seven wells, ultimately resulting in a regiment of seven dilutions in triplicate, for each compound. Next, the protein ligand OCT-SHH is diluted in Luciferase-assay medium and added to each well at a final concentration of […] Plates are then returned to the incubator for further incubation O/N, at 37° C. and 5% CO2. After about 24 h, plates are removed from the incubator and the medium is aspirated/discarded. Wells are washed once with assay buffer [PBS+1 mM Mg^2+ and 1 mM Ca^2+]. Then 50 μl of assay buffer is added to each well. The Luciferase assay reagent is prepared as described by the vendor (LucLite kit from Packard), and 50 μl is added to each well. Plates are incubated at room temperature (RT) for about 30 minutes after which the signals are read, again at RT, on a Topcount (Packard).

| pIC50 | Compound |
| --- | --- |
| > 5.30 | Cc1ccccc1OCC(=O)Nc1ccc(Cl)c(-c2nc3ccccc3[nH]2)c1 [E] |
| > 5.30 | Cc1ccc(C(=O)Nc2ccc(Cl)c(-c3nc4ccccc4[nH]3)c2)cc1[N+](=O)[O-] [J] |
| > 5.30 | COc1cc(C(=O)Nc2ccc(Cl)c(-c3nc4ccccc4[nH]3)c2)cc(OC)c1OC [L] |

Tested on: Hedgehog pathway
Test: Gli-Luc reporter assay in human embryonic palatal mesenchyme cells, OCT-SHH stimulated
Type: cell-based
Conditions: human-based Gli-Luc assay, OCT-SHH 1 μg/ml
Experimental: as §1, §2, §3, §4
Similar assays were performed using human cell lines (specifically, human embryonic palatal mesenchyme cells, modified with the Gli-Luc construct as described above) in a growth medium of MEM/Sodium Pyruvate w/10% MS, and an assay medium of MEM/Sodium Pyruvate w/0.5% FBS. OCT-SHH was added to reach a final concentration of 1 μg/ml.

| Compound | pIC50 |
| --- | --- |
| O=C(Nc1ccc(Cl)c(-c2nc3ccccc3[nH]2)c1)c1cccnc1 [B] | > 7.30 |
| O=C(Nc1ccc(Cl)c(-c2nc3ccccc3[nH]2)c1)c1ccc2c(c1)OCCO2 [C] | > 6.30 |
| COc1cc(OC)cc(C(=O)Nc2ccc(Cl)c(-c3nc4ccccc4[nH]3)c2)c1 [Compound A] | > 7.30 |
| O=C(Nc1ccc(Cl)c(-c2nc3cc(C(F)(F)F)ccc3[nH]2)c1)c1ccc2c(c1)OCCO2 [W] | > 8.00 |
| Cc1ccc2nc(-c3cc(NC(=O)c4ccc5c(c4)OCCO5)ccc3Cl)[nH]c2c1C [X] | > 7.30 |
| COc1ccc(C(=O)Nc2ccc(Cl)c(-c3nc4cc(C)c(C)cc4[nH]3)c2)cc1Cl [Y] | > 7.30 |
| COc1cc(OC)cc(C(=O)Nc2ccc(Cl)c(-c3nc4c(C)cccc4[nH]3)c2)c1 [Z] | > 7.30 |

Tested on: hedgehog signaling pathway
Test: Colon cancer cells co-cultured with 10T(S12) reporter cells, luciferase activity
Type: cell-based
Conditions: 20,000 colon cancer cells mixed with 10,000 10T(S12) cells, 72 hrs incubation
Experimental: 20,000 colon cancer cells were mixed with 10,000 10T(S12) cells (described above), and the mixture was added to each well in a 96-well plate. A subject compound or control vehicle was added to the culture on the next day. After 72 hrs of incubation, the cells were lysed for measuring the luciferase activity. […] FIG. 35 depicts the comparative inhibition of hedgehog-induced activation in S12 cells for the antibodies 1E6 and 5E1 and compound A, and the comparative inhibition of endogenous hedgehog activity in colon cancer cells for these compositions.

| Compound | inhibition of luciferase activity compared to vehicle |
| --- | --- |
| COc1cc(OC)cc(C(=O)Nc2ccc(Cl)c(-c3nc4ccccc4[nH]3)c2)c1 [Compound A] | able to inhibit the lucferase activity |
